This is an account of results in patent US9925139B2, “Pharmaceutical compositions for acute glucocorticoid therapy” (ACUCORT AB, priority 2004, dated 2018).

The conditions of data set [1]: cited from earlier work; for Equivalent amount: dose equivalent for glucocorticoid therapy; for Hydrocortisone equivalent (1 mg of the glucocorticoid corresponds to the listed amount in mg of hydrocortisone): per 1 mg of the glucocorticoid.
Data set [2] can be described thus: In vivo plasma cortisol profile in healthy volunteers with suppressed endogenous cortisol, oral mucosal administration. Set-up: species or system human. The method, then: The in vivo experiments reported herein were carried out on healthy volunteers. At 6 pm and 11 pm the day before administration of the test composition, the endogenous cortisol secretion was suppressed by oral administration of 2 mg of betamethasone. The test composition was administered to healthy volunteers. The volunteers were in fasted state and were not allowed to take any food until noon. In the case a tablet is administered, it is ingested together with 200 ml of water. The test composition is administered between 8 am and 10 am on the day following the suppression of endogenous glucocorticoid secretion.
In vivo plasma profiles in humans, N=1 per composition
Dexamethasone suppression test, fasting state, otherwise as described in the paragraph denoted “Method”.
Two films were prepared essentially similar to Example 13—composition A. Film A contains 10 mg of hydrocortisone and film B contains 11.2 mg of hydrocortisone acetate.
The hydrocortisone compositions were tested in two human subjects after labial administration. The subjects had their endogenous glucocorticoid secretion suppressed by synthetic glucocorticoids. The plasma concentration of cortisol was monitored during 360 min after the labial administration, and the serum concentration time profiles from these two subjects are shown in FIGS. 6 and 7.
The compositions were tested after oral administration to two human subjects (see FIG. 8).

Turning to `CC(=O)OCC(=O)[C@@]1(O)CC[C@H]2[C@@H]3CCC4=CC(=O)CC[C@]4(C)[C@H]3C(=O)C[C@@]21C` [Cortisone acetate], in data set [1], the “Equivalent amount” value is given as 25 mg and the “Hydrocortisone equivalent (1 mg of the glucocorticoid corresponds to the listed amount in mg of hydrocortisone)” value (shortened to “Hydrocortisone equivalent”) is reported as 0.8 mg.
With `C[C@]12CCC(=O)C=C1CC[C@@H]1[C@@H]2[C@@H](O)C[C@@]2(C)[C@H]1CC[C@]2(O)C(=O)CO` [Hydrocortisone], in data set [2] (Example 13 films, 10 mg hydrocortisone, labial administration, two human subjects), the “Time at which first measured plasma concentration was attained” value was 10 to 15 min. The “Rate and extent of mucosal uptake” value in data set [2] (Example 13 films, 10 mg hydrocortisone, labial administration, two human subjects, FIGS. 6 and 7) is “high”. In addition, in data set [1], the “Equivalent amount” value was 20 mg and the “Hydrocortisone equivalent” value was 1 mg.
Regarding `C[C@@H]1C[C@H]2[C@@H]3C[C@H](F)C4=CC(=O)C=C[C@]4(C)[C@H]3[C@@H](O)C[C@]2(C)[C@@]1(O)C(=O)CO` [Paramethasone], in data set [1], the “Equivalent amount” value is 2 mg and the “Hydrocortisone equivalent” value is listed as 10 mg.
As to `C[C@]12C=CC(=O)C=C1CC[C@@H]1[C@@H]2[C@@H](O)C[C@@]2(C)[C@H]1CC[C@]2(O)C(=O)CO` [Prednisolone], in data set [1], the “Equivalent amount” value was 5 mg and the “Hydrocortisone equivalent” value is given as 4 mg.
`C[C@]12C=CC(=O)C=C1CC[C@H]1[C@@H]3C[C@@H](O)[C@](O)(C(=O)CO)[C@@]3(C)C[C@H](O)[C@@]12F` [Triamcinolone]: in data set [1], the “Equivalent amount” value is listed as 4 mg and the “Hydrocortisone equivalent” value is reported as 5 mg.
Consider `CC(=O)OCC(=O)[C@@]1(O)CC[C@H]2[C@@H]3CCC4=CC(=O)CC[C@]4(C)[C@H]3[C@@H](O)C[C@@]21C` [hydrocortisone acetate], for which the “Suitability for an immediate release composition (in vivo plasma profiles)” value in data set [2] (Example 11 thin-layer films, humans, N=1 per composition, fasting state, FIGS. 1-3) is “does not seem to be suitable for an immediate release composition”.
